Results as given in patent US11021493B2, “1,4-thiazine dioxide and 1,2,4-thiadiazine dioxide derivatives as beta-secretase inhibitors and methods of use” (AMGEN INC., priority 2016, dated 2021).

Legend:
BACE1 [1] = molecular target: T1, BACE1 (Homo sapiens (Human), UniProt P56817); test: In vitro enzymatic BACE1 FRET assay; format: biochemical; settings: read-out: BACE1 Enzyme IC50
Target sequence in this assay (P56817 46-501): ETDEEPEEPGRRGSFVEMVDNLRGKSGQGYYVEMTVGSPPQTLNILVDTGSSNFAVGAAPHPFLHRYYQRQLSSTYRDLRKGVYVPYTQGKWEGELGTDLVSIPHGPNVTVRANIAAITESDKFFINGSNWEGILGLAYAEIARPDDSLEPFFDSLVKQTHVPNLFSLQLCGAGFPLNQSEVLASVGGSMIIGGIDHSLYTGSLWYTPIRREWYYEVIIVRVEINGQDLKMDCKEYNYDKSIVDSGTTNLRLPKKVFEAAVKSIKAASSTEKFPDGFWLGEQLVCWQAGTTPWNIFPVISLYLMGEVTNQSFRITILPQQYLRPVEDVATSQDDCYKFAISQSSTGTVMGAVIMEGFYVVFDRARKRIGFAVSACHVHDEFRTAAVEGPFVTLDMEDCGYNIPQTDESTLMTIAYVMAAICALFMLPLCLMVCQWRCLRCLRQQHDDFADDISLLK

human recombinant BACE2 = human recombinant BACE2 (Homo sapiens (Human), UniProt Q9Y5Z0); test: In vitro enzymatic BACE2 FRET assay; format: biochemical; settings: read-out: BACE2 Enzyme IC50
Cathepsin D (CatD) = Cathepsin D (CatD) (Homo sapiens (Human), UniProt P07339); test: In vitro enzymatic Cathepsin D (CatD) FRET assay; format: biochemical; settings: read-out: Cat D Enzyme IC50
BACE1 [2] = molecular target: T1, BACE1; test: In vitro BACE1 cell-based assay (Aβ40 in conditioned medium of cells stably expressing APP, HTRF); settings: Aβ40 in conditioned media after 24 h incubation
Target sequence in this assay (P56817 46-501, species assumed): as the sequence (P56817 46-501) above

Cathepsin D (CatD), sequence (P07339 65-412, species assumed): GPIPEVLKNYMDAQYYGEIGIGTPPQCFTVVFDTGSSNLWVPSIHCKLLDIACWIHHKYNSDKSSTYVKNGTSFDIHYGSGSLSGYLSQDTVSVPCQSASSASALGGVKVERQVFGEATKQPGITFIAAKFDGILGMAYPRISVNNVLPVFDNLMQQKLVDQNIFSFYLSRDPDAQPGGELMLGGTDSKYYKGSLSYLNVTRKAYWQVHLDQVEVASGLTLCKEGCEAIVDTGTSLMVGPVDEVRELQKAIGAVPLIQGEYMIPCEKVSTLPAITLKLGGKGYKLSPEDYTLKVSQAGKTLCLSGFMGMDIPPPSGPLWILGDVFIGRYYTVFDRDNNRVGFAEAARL
human recombinant BACE2, sequence (Q9Y5Z0 63-518): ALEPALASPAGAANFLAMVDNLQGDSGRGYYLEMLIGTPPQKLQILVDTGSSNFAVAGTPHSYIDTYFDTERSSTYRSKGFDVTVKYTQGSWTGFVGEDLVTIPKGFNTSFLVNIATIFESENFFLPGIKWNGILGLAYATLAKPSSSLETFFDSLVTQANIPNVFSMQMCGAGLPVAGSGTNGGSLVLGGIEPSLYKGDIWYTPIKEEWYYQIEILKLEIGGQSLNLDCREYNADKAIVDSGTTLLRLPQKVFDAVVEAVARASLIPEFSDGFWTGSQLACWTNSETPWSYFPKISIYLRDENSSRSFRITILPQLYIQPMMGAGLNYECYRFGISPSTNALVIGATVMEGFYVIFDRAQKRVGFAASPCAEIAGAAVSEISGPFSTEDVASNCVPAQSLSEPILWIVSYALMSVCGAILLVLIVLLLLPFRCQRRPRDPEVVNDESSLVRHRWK

SMILES | IC50 (BACE1 [1]) | IC50 (human recombinant BACE2) | IC50 (Cathepsin D (CatD)) | IC50 (BACE1 [2])
CN1C(N)=N[C@](C)(c2cc(/C=C(\F)c3ncc(C#N)cc3Cl)cc(F)c2F)CS1(=O)=O [Example 276, (R,Z)-6-(2-(3-(3-amino-2,5-dimethyl-1,1-dioxido-5,6-dihydro-2H-1,2,4-thiadiazin-5-yl)-4,5-difluorophenyl)-1-fluorovinyl)-5-chloronicotinonitrile] | 2 nM | 6 nM | 58000 nM | 17 nM
CC#C[C@H](CC)Oc1cnc(/C(F)=C/c2ccc(F)c([C@]3(C)CS(=O)(=O)C(C)(C)C(N)=N3)c2)cn1 (single isomer, unassigned) [Example 199] | 4 nM | 102 nM | 51200 nM | 2 nM
CN1C(N)=N[C@](C)(c2cc(/C=C(\F)c3cnc(C#CC4CC4)cn3)ccc2F)CS1(=O)=O [Example 248, (R,Z)-3-amino-5-(5-(2-(5-(cyclopropylethynyl)pyrazin-2-yl)-2-fluorovinyl)-2-fluorophenyl)-2,5-dimethyl-5,6-dihydro-2H-1,2,4-thiadiazine 1,1-dioxide] | 3 nM | 16 nM | 12700 nM | 13 nM
CCC#C[C@H](C)Oc1cnc(/C(F)=C/c2ccc(F)c([C@]3(C)CS(=O)(=O)C(C)(C)C(N)=N3)c2)cn1 (single isomer, unassigned) [Example 217] | 9 nM | 233 nM | 26800 nM | 288 nM
CN1C(N)=N[C@](C)(c2cc(/C=C(\F)c3cc(C#N)c(Cl)cn3)ccc2F)CS1(=O)=O [Example 231, (R,Z)-2-(2-(3-(3-amino-2,5-dimethyl-1,1-dioxido-5,6-dihydro-2H-1,2,4-thiadiazin-5-yl)-4-fluorophenyl)-1-fluorovinyl)-5-chloroisonicotinonitrile] | 84 nM | 94 nM | > 4940 nM | 97 nM
CC1(C)C(N)=N[C@](C)(c2cc(/C=C(\F)c3cnc(Cl)cn3)ccc2F)C(F)(F)S1(=O)=O [Example 191, (R,Z)-5-amino-3-(5-(2-(5-chloropyrazin-2-yl)-2-fluorovinyl)-2-fluorophenyl)-2,2-difluoro-3,6,6-trimethyl-3,6-dihydro-2H-1,4-thiazine 1,1-dioxide] | 128 nM | 52 nM | 62200 nM | 5090 nM
CN1C(N)=N[C@](C)(c2cc(/C=C(\F)c3cc4c(cn3)OCO4)ccc2F)CS1(=O)=O [Example 257, (5R)-5-(5-((Z)-2-([1,3]dioxolo[4,5-c]pyridin-6-yl)-2-fluoroethenyl)-2-fluorophenyl)-2,5-dimethyl-5,6-dihydro-2H-1,2,4-thiadiazin-3-amine 1,1-dioxide] | 207 nM | 235 nM | 237000 nM | 102 nM
CN1C(N)=N[C@](C)(c2cc(/C=C(\F)c3cc4cc(Cl)ccc4cn3)ccc2F)CS1(=O)=O [Example 260, (5R)-5-(5-((Z)-2-(6-chloro-3-isoquinolinyl)-2-fluoroethenyl)-2-fluorophenyl)-2,5-dimethyl-5,6-dihydro-2H-1,2,4-thiadiazin-3-amine 1,1-dioxide] | 552 nM | 112 nM | 72500 nM | 4180 nM
CC1(C)C(N)=N[C@](C)(c2cc(/C=C(\F)c3cnc(Cl)cn3)cnc2F)CS1(=O)=O [Example 203, (R,Z)-5-amino-3-(5-(2-(5-chloropyrazin-2-yl)-2-fluorovinyl)-2-fluoropyridin-3-yl)-3,6,6-trimethyl-3,6-dihydro-2H-1,4-thiazine 1,1-dioxide] | 125 nM | 56 nM | 85400 nM | 196 nM
C[C@@]1(c2cc(/C=C(\F)c3ccc(Cl)cn3)ccc2F)CS(=O)(=O)C2(CCC2)C(N)=N1 [Example 100, (R,Z)-9-amino-7-(5-(2-(5-chloropyridin-2-yl)-2-fluorovinyl)-2-fluorophenyl)-7-methyl-5-thia-8-azaspiro[3.5]non-8-ene 5,5-dioxide] | 10 nM | 7 nM | 91000 nM | 472 nM
Cc1cc(C#N)cnc1/C(F)=C/c1ccc(F)c([C@]2(C)CS(=O)(=O)C(C)(C)C(N)=N2)c1 [Example 274, (R,Z)-6-(2-(3-(5-amino-3,6,6-trimethyl-1,1-dioxido-3,6-dihydro-2H-1,4-thiazin-3-yl)-4-fluorophenyl)-1-fluorovinyl)-5-methylnicotinonitrile] | 6 nM | 28 nM | 122000 nM | 51 nM
C[C@]1(c2cc(/C=C(\F)c3ccc(C#N)cn3)ccc2F)N=C(N)C2(CF)CC[C@@H]1S2(=O)=O (stereo in doubt) [Example 102, 6-((Z)-2-(3-((1S,2R,5R)-4-amino-5-(fluoromethyl)-2-methyl-8,8-dioxido-8-thia-3-azabicyclo[3.2.1]oct-3-en-2-yl)-4-fluorophenyl)-1-fluorovinyl)nicotinonitrile] | 5 nM | 32 nM | > 133000 nM | 17 nM
C[C@]1(c2cc(/C=C(\F)c3cnc(OCC4CC4)cn3)ccc2F)N=C(N)[C@@]2(CF)CC[C@@H]1S2(=O)=O [Example 118, (1R,4R,5S)-2-amino-4-(5-((Z)-2-(5-(cyclopropylmethoxy)pyrazin-2-yl)-2-fluorovinyl)-2-fluorophenyl)-1-(fluoromethyl)-4-methyl-8-thia-3-azabicyclo[3.2.1]oct-2-ene 8,8-dioxide] | 35 nM | 124 nM | > 400000 nM | 706 nM
CC1(C)C(N)=N[C@](C)(c2cc(/C=C(\F)c3ccc(F)cn3)ccc2F)CS1(=O)=O [Example 262, (R,Z)-5-amino-3-(2-fluoro-5-(2-fluoro-2-(5-fluoropyridin-2-yl)vinyl)phenyl)-3,6,6-trimethyl-3,6-dihydro-2H-1,4-thiazine 1,1-dioxide] | 47 nM | 11 nM | 108000 nM | 180 nM
CC1(C)C(N)=N[C@](C)(c2cc(/C=C(\F)c3cnc(OCC4CCCCC4)cn3)ccc2F)CS1(=O)=O [Example 150, (R,Z)-5-amino-3-(5-(2-(5-(cyclohexylmethoxy)pyrazin-2-yl)-2-fluorovinyl)-2-fluorophenyl)-3,6,6-trimethyl-3,6-dihydro-2H-1,4-thiazine 1,1-dioxide] | 46 nM | 155 nM | 13800 nM | 1620 nM
CN1C(N)=N[C@](C)(c2cc(/C=C(/F)c3ccc(Cl)cn3)cc(F)c2F)CS1(=O)=O [Example 151, (R,E)-3-amino-5-(5-(2-(5-chloropyridin-2-yl)-2-fluorovinyl)-2,3-difluorophenyl)-2,5-dimethyl-5,6-dihydro-2H-1,2,4-thiadiazine 1,1-dioxide] | 240 nM | 121 nM | 40900 nM | 1420 nM
CN1C(N)=N[C@](C)(c2cc(/C=C(\F)c3ccc(C#N)s3)ccc2F)CS1(=O)=O [Example 256, 5-((Z)-2-(3-((5R)-3-amino-2,5-dimethyl-1,1-dioxido-5,6-dihydro-2H-1,2,4-thiadiazin-5-yl)-4-fluorophenyl)-1-fluoroethenyl)-2-thiophenecarbonitrile] | 35 nM | 14 nM | 15400 nM | 99 nM
C[C@]1(c2cc(/C=C(\F)c3cnc(OCC(F)F)cn3)ccc2F)N=C(N)[C@@]2(CF)CC[C@@H]1S2(=O)=O [Example 134, (1R,4R,5S)-2-amino-4-(5-((Z)-2-(5-(2,2-difluoroethoxy)pyrazin-2-yl)-2-fluorovinyl)-2-fluorophenyl)-1-(fluoromethyl)-4-methyl-8-thia-3-azabicyclo[3.2.1]oct-2-ene 8,8-dioxide] | 101 nM | 123 nM | 196000 nM | 318 nM
CN1C(N)=N[C@](C)(c2cc(/C=C(\F)c3ccc(C(F)(F)F)cn3)cc(F)c2F)CS1(=O)=O [Example 273, (R,Z)-3-amino-5-(2,3-difluoro-5-(2-fluoro-2-(5-(trifluoromethyl)pyridin-2-yl)vinyl)phenyl)-2,5-dimethyl-5,6-dihydro-2H-1,2,4-thiadiazine 1,1-dioxide] | 7 nM | 46 nM | 76200 nM | 13 nM
CC1(C)C(N)=N[C@](C)(c2cc(/C=C(\F)c3cc4c(cn3)OCCO4)ccc2F)[C@H](F)S1(=O)=O (single isomer, unassigned) [Example 214] | 225 nM | 851 nM | 303000 nM | 5940 nM
Cc1noc(COc2cnc(/C(F)=C/c3ccc(F)c([C@]4(C)CS(=O)(=O)C(C)(C)C(N)=N4)c3)cn2)n1 [Example 175, (R,Z)-5-amino-3-(2-fluoro-5-(2-fluoro-2-(5-((3-methyl-1,2,4-oxadiazol-5-yl)methoxy)pyrazin-2-yl)vinyl)phenyl)-3,6,6-trimethyl-3,6-dihydro-2H-1,4-thiazine 1,1-dioxide] | 88 nM | 225 nM | 124000 nM | 53 nM
C[C@]1(c2cc(/C=C(\F)c3cnc(OCC4CCC4)cn3)ccc2F)N=C(N)[C@@]2(CF)CC[C@@H]1S2(=O)=O [Example 132, (1R,4R,5S)-2-amino-4-(5-((Z)-2-(5-(cyclobutylmethoxy)pyrazin-2-yl)-2-fluorovinyl)-2-fluorophenyl)-1-(fluoromethyl)-4-methyl-8-thia-3-azabicyclo[3.2.1]oct-2-ene 8,8-dioxide] | 38 nM | 217 nM | > 400000 nM | 1960 nM
CC1(C)C(N)=N[C@](C)(c2cc(/C=C(\F)c3ccc(Cl)cn3)ccc2F)CS1(=O)=O [Example 114, (R,Z)-5-amino-3-(5-(2-(5-chloropyridin-2-yl)-2-fluorovinyl)-2-fluorophenyl)-3,6,6-trimethyl-3,6-dihydro-2H-1,4-thiazine 1,1-dioxide] | 9 nM | 3 nM | 115000 nM | 80 nM
